# Laboratory results as given in US20260167619A2, “INDOLINE COMPOUNDS AND DERIVATIVES AS EGFR INHIBITORS” (BeOne Medicines I GmbH, priority 2020, published 2026).
# Columns and labels:
# [1] = target: EGFR(Dell9_T790M_C797S) (aa 669-1210, in house) (Homo sapiens, UniProt P00533, T790M/C797S, form not given); test: Biochemical EGFR inhibition assay (TR-FRET), Del19/T790M/C797S mutant; conditions: ATP at Km, 15 min pre-incubation, 60 min reaction; read-out: Del_TM_CS (Km ATP) IC50
# Outline: (§1)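 Biotin-poly GT phosphorylation detected with Eu-cryptate anti-phosphotyrosine (PT66) and XL665-streptavidin after EDTA/KF stop, 665/620 nm ratio. Enzyme and compound preincubated 15 min, then ATP at Km added for 60 min at room temperature. Four-parameter logistic fit gives IC50.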
# [2] = target: T1, EGFR(L858R_T790M_C797S) (aa695-end, Invitrogen) (Homo sapiens, UniProt P00533, C797S/L858R/T790M); test: Biochemical EGFR inhibition assay (TR-FRET), L858R/T790M/C797S mutant; conditions: ATP at Km, 15 min pre-incubation, 60 min reaction; read-out: LR_TM_CS (Km ATP) IC50
# T1 construct: purchased Invitrogen
# Outline: as §1
# BaF3-Del_TM_CS cells = BaF3-Del_TM_CS cells (Homo sapiens, UniProt P00533, T790M/C797S, cells depend on it, form not given); test: Cell antiproliferation assay (CellTiter-Glo), BaF3-Del_TM_CS; format: cell-based; conditions: 48 h treatment, read-out: BaF3-Del_TM_CS IC50
# Experimental: (§2) BaF3 cells are treated with compounds diluted in 0.2% DMSO, dilution is done according to the following protocol: (1) make 500× stock solution in DMSO from 5 mM by 5-fold dilution, total 8 doses were included; (2) make 10× solution in cell culture medium by transferring 2 μl 500× stock solution into 98 μl medium; (3) 10 μl of 10× solution is added to cells and incubate for 48 h.
# (§3) After 48 h treatment, add 30 μl CellTiter-Glo reagent[CellTiter-Glo® 2.0, (Promega, Cat #G9242)] to each well; seal the plate and incubate 2 min at room temperature on a plate shaker; Allow the plate to incubate at room temperature for 10 minutes to stabilize the luminescent signal. Record luminescence on BMG PheraStar with luminescence protocol.
# (§4) The IC50 value of a compound can be obtained by fitting the following equation
# (§5) Wherein, X and Y are known values, and IC50, Hillslope, Top and Bottom are the parameters obtained by fitting with software. Y is the inhibition percentage (calculated from the equation), X is the concentration of the compound; IC50 is the concentration of the compound when the 50% inhibition is reached. The smaller the IC50 value is, the stronger the inhibitory ability of the compound is. Vice versa, the higher the IC50 value is, the weaker the ability the inhibitory ability of the compound is; Hillslope represents the slope of the fitted curve, generally around 1 *; Bottom represents the minimum value of the curve obtained by data fitting, which is generally 0%±20%; Top represents the maximum value of the curve obtained by data fitting, which is generally 100%±20%. The experimental data were fitted by calculating and analyzing with Dotmatics data analysis software.
# BaF3-WT cells = BaF3-WT cells (Homo sapiens, UniProt P00533); test: Cell antiproliferation assay (CellTiter-Glo), BaF3-WT; format: cell-based; conditions: 48 h treatment, read-out: BaF3-WT IC50
# Experimental: as §2, §3, §4, §5
# BaF3-LR_TM_CS cells = BaF3-LR_TM_CS cells (Homo sapiens, UniProt P00533, T790M/C797S/L858R, cells depend on it); test: Cell antiproliferation assay (CellTiter-Glo), BaF3-LR_TM_CS; format: cell-based; conditions: 48 h treatment, read-out: BaF3-LR_TM_CS IC50
# Experimental: as §2, §3, §4, §5
# [3] = target: T2, EGFR (aa668-1210, Invitrogen) (Homo sapiens, UniProt P00533); test: Biochemical EGFR inhibition assay (TR-FRET), wild-type EGFR; conditions: ATP at Km, 15 min pre-incubation, 60 min reaction; read-out: WT (Km ATP) IC50
# T2 construct: EGFR (aa668-1210, Invitrogen); purchased Invitrogen
# Outline: as §1
# Chain of BaF3-WT cells (P00533 whole entry, change not shown): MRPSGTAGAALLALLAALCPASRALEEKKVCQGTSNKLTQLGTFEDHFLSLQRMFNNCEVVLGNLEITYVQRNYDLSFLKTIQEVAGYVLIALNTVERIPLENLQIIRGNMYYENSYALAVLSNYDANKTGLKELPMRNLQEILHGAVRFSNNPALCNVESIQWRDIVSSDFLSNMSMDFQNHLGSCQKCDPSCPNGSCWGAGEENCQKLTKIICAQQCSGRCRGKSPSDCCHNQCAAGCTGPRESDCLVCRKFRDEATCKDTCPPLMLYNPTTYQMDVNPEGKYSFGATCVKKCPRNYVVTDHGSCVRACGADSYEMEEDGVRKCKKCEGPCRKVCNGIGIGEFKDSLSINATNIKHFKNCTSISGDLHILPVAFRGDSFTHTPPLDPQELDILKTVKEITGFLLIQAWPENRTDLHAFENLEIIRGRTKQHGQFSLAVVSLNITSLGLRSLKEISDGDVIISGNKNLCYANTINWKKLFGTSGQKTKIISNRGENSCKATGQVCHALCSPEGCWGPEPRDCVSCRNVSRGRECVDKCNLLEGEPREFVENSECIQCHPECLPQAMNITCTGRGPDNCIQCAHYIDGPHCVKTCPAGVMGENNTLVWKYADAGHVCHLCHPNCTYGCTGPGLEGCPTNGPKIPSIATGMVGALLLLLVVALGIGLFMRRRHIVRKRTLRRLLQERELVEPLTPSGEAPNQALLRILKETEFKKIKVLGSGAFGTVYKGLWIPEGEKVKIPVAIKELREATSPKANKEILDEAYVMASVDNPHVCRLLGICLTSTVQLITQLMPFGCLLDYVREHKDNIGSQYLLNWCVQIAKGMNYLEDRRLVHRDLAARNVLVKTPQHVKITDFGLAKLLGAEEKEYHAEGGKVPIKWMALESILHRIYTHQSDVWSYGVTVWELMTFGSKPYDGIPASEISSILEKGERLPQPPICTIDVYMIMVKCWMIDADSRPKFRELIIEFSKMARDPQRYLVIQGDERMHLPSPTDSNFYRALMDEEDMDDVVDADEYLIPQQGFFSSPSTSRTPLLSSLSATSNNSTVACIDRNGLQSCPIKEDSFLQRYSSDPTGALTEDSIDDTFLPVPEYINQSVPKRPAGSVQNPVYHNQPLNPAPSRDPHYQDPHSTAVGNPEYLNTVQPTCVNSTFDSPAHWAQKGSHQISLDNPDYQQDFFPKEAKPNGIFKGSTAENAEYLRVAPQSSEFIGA
# T1 sequence (P00533 695-1210 T790M/C797S/L858R): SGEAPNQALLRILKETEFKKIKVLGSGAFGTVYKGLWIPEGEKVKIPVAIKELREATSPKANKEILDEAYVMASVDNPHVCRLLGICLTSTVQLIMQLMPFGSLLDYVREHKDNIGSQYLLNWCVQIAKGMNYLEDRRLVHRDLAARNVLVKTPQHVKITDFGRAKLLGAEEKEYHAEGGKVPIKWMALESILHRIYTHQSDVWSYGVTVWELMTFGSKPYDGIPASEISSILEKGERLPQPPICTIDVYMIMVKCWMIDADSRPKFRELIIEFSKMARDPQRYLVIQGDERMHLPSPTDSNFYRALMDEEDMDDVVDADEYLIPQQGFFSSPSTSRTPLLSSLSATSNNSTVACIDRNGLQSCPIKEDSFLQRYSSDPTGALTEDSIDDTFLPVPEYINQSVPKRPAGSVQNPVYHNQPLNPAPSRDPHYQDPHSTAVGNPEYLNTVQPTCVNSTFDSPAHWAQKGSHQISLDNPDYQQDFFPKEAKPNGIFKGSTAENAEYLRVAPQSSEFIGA
# Chain of BaF3-Del_TM_CS cells (P00533 with tags, fused parts or gaps DEL746-750/T790M/C797S, form open): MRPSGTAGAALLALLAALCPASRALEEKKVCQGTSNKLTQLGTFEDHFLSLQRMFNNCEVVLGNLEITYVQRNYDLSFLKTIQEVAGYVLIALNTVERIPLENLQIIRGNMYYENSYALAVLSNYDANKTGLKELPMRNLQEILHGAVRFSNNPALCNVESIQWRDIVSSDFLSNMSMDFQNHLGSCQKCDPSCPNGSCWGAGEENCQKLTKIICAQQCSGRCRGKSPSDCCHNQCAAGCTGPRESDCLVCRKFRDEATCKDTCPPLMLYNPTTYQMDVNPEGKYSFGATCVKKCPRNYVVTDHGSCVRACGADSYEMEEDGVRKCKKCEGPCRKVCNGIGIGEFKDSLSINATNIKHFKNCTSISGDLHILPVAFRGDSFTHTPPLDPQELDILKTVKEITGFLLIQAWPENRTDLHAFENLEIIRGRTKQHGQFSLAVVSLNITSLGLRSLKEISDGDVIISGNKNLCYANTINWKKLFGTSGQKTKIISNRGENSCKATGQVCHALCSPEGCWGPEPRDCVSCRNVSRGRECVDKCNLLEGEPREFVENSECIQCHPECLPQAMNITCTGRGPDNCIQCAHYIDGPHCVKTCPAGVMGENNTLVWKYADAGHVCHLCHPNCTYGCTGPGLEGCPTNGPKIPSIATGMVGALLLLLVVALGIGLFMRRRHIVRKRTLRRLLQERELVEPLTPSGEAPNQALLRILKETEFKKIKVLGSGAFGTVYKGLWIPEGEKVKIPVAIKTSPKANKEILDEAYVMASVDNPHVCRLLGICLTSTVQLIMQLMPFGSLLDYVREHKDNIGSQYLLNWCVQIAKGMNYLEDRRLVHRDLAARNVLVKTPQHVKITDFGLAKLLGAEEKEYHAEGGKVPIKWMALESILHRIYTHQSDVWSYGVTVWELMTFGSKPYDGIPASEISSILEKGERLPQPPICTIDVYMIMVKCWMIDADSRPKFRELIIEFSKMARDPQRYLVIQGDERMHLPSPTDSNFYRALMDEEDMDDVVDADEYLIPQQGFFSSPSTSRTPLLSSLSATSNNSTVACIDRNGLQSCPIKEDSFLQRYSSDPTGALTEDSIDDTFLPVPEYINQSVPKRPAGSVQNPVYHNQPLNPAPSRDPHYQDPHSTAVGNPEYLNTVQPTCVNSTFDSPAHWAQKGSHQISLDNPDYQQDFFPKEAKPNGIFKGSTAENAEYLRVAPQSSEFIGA
# Chain of EGFR(Dell9_T790M_C797S) (aa 669-1210, in house) (P00533 with tags, fused parts or gaps DEL746-750/T790M/C797S, form open): as above
# T2 sequence (P00533 668-1210): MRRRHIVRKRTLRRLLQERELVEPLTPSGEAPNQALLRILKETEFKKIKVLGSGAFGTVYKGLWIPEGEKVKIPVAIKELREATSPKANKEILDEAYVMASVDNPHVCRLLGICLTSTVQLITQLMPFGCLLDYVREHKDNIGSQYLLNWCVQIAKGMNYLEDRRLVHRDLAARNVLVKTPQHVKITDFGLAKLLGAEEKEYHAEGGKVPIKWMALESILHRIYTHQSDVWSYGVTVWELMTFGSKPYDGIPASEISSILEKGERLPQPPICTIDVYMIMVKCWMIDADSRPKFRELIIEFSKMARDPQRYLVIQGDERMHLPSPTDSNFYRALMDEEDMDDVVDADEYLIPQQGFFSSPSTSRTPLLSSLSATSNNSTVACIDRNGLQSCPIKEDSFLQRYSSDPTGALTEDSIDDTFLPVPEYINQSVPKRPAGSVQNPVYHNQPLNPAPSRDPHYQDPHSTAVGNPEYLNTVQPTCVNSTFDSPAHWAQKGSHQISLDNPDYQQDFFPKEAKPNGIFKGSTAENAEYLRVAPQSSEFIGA
Structure (SMILES),IC50 [1] [nM],IC50 [2] [nM],GI50 (BaF3-Del_TM_CS cells) [nM],GI50 (BaF3-WT cells) [nM],GI50 (BaF3-LR_TM_CS cells) [nM],IC50 [3] [nM]
"CN(C)C1CCN(c2ccc(Nc3ncc(Cl)c(Nc4cccc5c4N(S(C)(=O)=O)CC5)n3)c3c2CCO3)CC1 [Example 47, 5-chloro-N^2-(4-(4-(dimethylamino)piperidin-1-yl)-2,3-dihydrobenzofuran-7-yl)-N^4-(1-(methylsulfonyl)indolin-7-yl)pyrimidine-2,4-diamine]",0.3,0.85,12.3,630,37.8,3.8
"COc1cc(N2CCC(N3CCN(C)CC3)CC2)ccc1Nc1ncc(C#N)c(Nc2cccc3c2N(S(C)(=O)=O)CC3)n1 [Example 33, 2-((2-methoxy-4-(4-(4-methylpiperazin-1-yl)piperidin-1-yl)phenyl)amino)-4-((1-(methylsulfonyl)indolin-7-yl)amino)pyrimidine-5-carbonitrile]",1,1.3,68.5,328,225,1.3
"COc1cc(N2CCC(N3CCN(C)CC3)CC2)ccc1Nc1nc2c(c(Nc3cccc4c3N(S(C)(=O)=O)CC4)n1)CCC2 [Example 74, N^2-(2-methoxy-4-(4-(4-methylpiperazin-1-yl)piperidin-1-yl)phenyl)-N^4-(1-(methylsulfonyl)indolin-7-yl)-6,7-dihydro-5H-cyclopenta[d]pyrimidine-2,4-diamine]",131,53,436,2350,617,525

# Other lines, results leading:
IC50 [1] [nM],IC50 [2] [nM],GI50 (BaF3-Del_TM_CS cells) [nM],GI50 (BaF3-WT cells) [nM],GI50 (BaF3-LR_TM_CS cells) [nM],IC50 [3] [nM],Structure (SMILES)
8.6,3,59,1970,399,427,"COc1cc(C2CCN(C)CC2)c(C)cc1Nc1nc(Nc2cccc3c2N(S(C)(=O)=O)CC3)c2cc[nH]c2n1 [Example 99, N^2-(2-methoxy-5-methyl-4-(1-methylpiperidin-4-yl)phenyl)-N^4-(1-(methylsulfonyl)indolin-7-yl)-7H-pyrrolo[2,3-d]pyrimidine-2,4-diamine]"
0.33,0.29,8.3,388,62,18,"CCN1CCN(C2CCN(c3ccc(Nc4nc(Nc5cccc6c5N(S(C)(=O)=O)CC6)c5cc[nH]c5n4)cc3F)CC2)CC1 [Example 77, N^2-(4-(4-(4-ethylpiperazin-1-yl)piperidin-1-yl)-3-fluorophenyl)-N^4-(1-(methylsulfonyl)indolin-7-yl)-7H-pyrrolo[2,3-d]pyrimidine-2,4-diamine]"
1.5,1.04,87.5,2560,191,44,"COc1cc(N2CCC(N3CCN(C)CC3)CC2)ccc1Nc1nc(Nc2cccc3c2N(S(C)(=O)=O)CC3)c2cc[nH]c2n1 [Example 90, N^2-(2-methoxy-4-(4-(4-methylpiperazin-1-yl)piperidin-1-yl)phenyl)-N^4-(1-(methylsulfonyl)indolin-7-yl)-7H-pyrrolo[2,3-d]pyrimidine-2,4-diamine]"
1.6,0.61,27.4,853,141,4.7,"COc1cc(N2CCC(N3CCN(C)CC3)CC2)ccc1Nc1nc(Nc2cccc3c2N(S(C)(=O)=O)CC3)c2c(Cl)c[nH]c2n1 [Example 73, 5-chloro-N^2-(2-methoxy-4-(4-(4-methylpiperazin-1-yl)piperidin-1-yl)phenyl)-N^4-(1-(methylsulfonyl)indolin-7-yl)-7H-pyrrolo[2,3-d]pyrimidine-2,4-diamine]"
6.3,4.8,64.3,376,169,573,"CN1CCN(c2ccc(Nc3nc(Nc4cccc5c4N(S(C)(=O)=O)CC5)c4cc[nH]c4n3)cn2)CC1 [Example 123, N^2-(6-(4-methylpiperazin-1-yl)pyridin-3-yl)-N^4-(1-(methylsulfonyl)indolin-7-yl)-7H-pyrrolo[2,3-d]pyrimidine-2,4-diamine]"
